# Key:
# hA3AR [1] = target: T1, hA3AR (Homo sapiens, UniProt P0DMS8); type: cell-based; settings: at 10 μM; relative to NECA 10 μM
# T1 sequence (P0DMS8 1-318): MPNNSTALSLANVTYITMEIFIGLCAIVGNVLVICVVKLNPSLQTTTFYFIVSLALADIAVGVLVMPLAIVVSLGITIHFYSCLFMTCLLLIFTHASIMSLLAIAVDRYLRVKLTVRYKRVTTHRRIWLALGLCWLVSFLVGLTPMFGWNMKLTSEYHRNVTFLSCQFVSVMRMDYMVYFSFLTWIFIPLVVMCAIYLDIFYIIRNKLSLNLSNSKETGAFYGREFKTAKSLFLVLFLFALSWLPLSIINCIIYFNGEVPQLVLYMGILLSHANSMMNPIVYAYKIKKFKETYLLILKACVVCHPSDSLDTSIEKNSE
# hA3AR [2] = target: T1, hA3AR; test: Radioligand binding at hA3AR; settings: A3AR versus A1AR
A3AR efficacy in the functional assay (in words) (hA3AR [1]),selectivity for A3AR in comparison to the A1AR (hA3AR [2]) [fold],Molecule
intermediate efficacy,–,"CNC(=O)[C@@]12C[C@@H]1[C@@H](n1cnc3c(NCc4cccc(C#CCCCCCc5cn(-c6ccc(F)c([N+](=O)[O-])c6)nn5)c4)nc(Cl)nc31)[C@H](O)[C@@H]2O [Compound 14, (1S, 2R, 3S, 4R, 5S)-4-(2-Chloro-6-(3-(7-(1-(4-fluoro-3-nitrophenyl)-1H-1,2,3-triazol-4-yl)hept-1-ynyl)benzylamino)-9H-purin-9-yl)-2,3-dihydroxybicyclo[3.1.0]hexane-1-carboxylic acid-N-methylamide]"
intermediate efficacy,–,"CNC(=O)[C@@]12C[C@@H]1[C@@H](n1cnc3c(NCc4cccc(C#CCCCc5cn(-c6ccc(F)c(N)c6)nn5)c4)nc(Cl)nc31)[C@H](O)[C@@H]2O [Compound 16, (1S, 2R, 3S, 4R, 5S)-4-(2-Chloro-6-(3-(5-(1-(4-fluoro-3-amino-phenyl)-1H-1,2,3-triazol-4-yl)pent-1-ynyl)benzylamino)-9H-purin-9-yl)-2,3-dihydroxybicyclo[3.1.0]hexane-1-carboxylic acid-N-methylamide]"
–,270,"C#CCNc1nc(Cl)nc2c1ncn2[C@H]1[C@H](O)[C@H](O)[C@]2(C(=O)NC)C[C@H]12 [Compound 31, (1S, 2R, 3S, 4R, 5S)-4-(2-Chloro-6-(prop-2-ynylamino)-9H-purin-9-yl)-2,3-dihydroxy-N-methylbicyclo[3.1.0]hexane-1-carboxamide]"
intermediate efficacy,–,"(1S, 2R, 3S, 4R, 5S)-4-[2-Chloro-6-{3-(1,7-octadiynyl)}-9H-purin -9-yl]- 2, 3-dihydroxybicyclo[3.1.0]hexane-1-carboxylic acid N-methylamide [Compound 10]"
intermediate efficacy,–,"(1S, 2R, 3S, 4R, 5S)-4-[2-Chloro-6-{3-(1,8-nonadiynyl)}-9H-purin -9-yl]- 2, 3-dihydroxybicyclo[3.1.0]hexane-1-carboxylic acid N-methylamide [Compound 11]"
